Here are results for 14 compounds from ChEMBL document CHEMBL1127553, “Derivatives of a novel cyclopeptolide. 2. Synthesis, activity against multidrug resistance in CHO and KB cells in vitro, and structure-activity relationships” (1994).

Holding throughout (format): functional, Cricetulus griseus
Test [1] deals with CHO. Put plainly: The sensitizing capacity for colchicine treatment of parental (PAR)CHO cells at concentration 1.0 (mg/L).
Test [2] concerns CHO. Put plainly: The sensitizing capacity for colchicine treatment of multi drug resistance(MDR) in CHO cell at concentration 0.1(mg/L).
For test [3], the system named is CHO. Briefly: Sensitization of colchicine treated parental (PAR)CHO cells, measured at concentration 0.1(mg/L).
For test [4], the system named is CHO. Put plainly: The sensitizing capacity for colchicine treatment of multi drug resistance (MDR) CHO cell at concentration 1.0(mg/L).

`CC[C@@H](C)[C@H]1C(=O)N(C)CC(=O)N(C)[C@@H](C(C)C)C(=O)N(C)[C@@H](Cc2ccc(OC)cc2)C(=O)O[C@H](C)C(=O)N2CCCC[C@H]2C(=O)N(C)[C@@H](C(C)C)C(=O)N(C)[C@@H](C(C)C)C(=O)N(C)[C@H](CC(=O)OC)C(=O)N(C)[C@@H]([C@@H](C)CC)C(=O)N1C`: the Activity turned out to be 4.6 with CHO [1], 1.1 with CHO [2], 1.3 in the test with CHO [3] and 5.5 with CHO [4].

`CC[C@H](C)[C@H]1C(=O)NCC(=O)N(C)[C@@H](C(C)C)C(=O)N[C@@H](Cc2ccc(OC)cc2)C(=O)O[C@H](C)C(=O)N2CCCC[C@H]2C(=O)N(C)[C@@H](C(C)C)C(=O)N[C@@H](C(C)C)C(=O)N(C)[C@@H](CC(=O)OC)C(=O)N(C)[C@@H]([C@@H](C)CC)C(=O)N1C`: the Activity with CHO [1] was determined as 8.4; with CHO [2] it was 1.9; with CHO [3], 6.4; in the test on CHO [4] it was 84.

As for `CC[C@@H](C)[C@H]1C(=O)N(C)CC(=O)N(C)[C@@H](C(C)C)C(=O)N(C)[C@@H](Cc2ccc(OC)cc2)C(=O)O[C@H](C)C(=O)N2CCCC[C@H]2C(=O)N(C)[C@@H](C(C)C)C(=O)N(C)[C@@H](C(C)C)C(=O)N(C)[C@H](CC(=O)OC(C)(C)C)C(=O)N(C)[C@@H]([C@@H](C)CC)C(=O)N1C`, the Activity with CHO [1] is listed as 8.7; in the test with CHO [2], 1.2; in the test with CHO [3], 3.6; in the test with CHO [4] it was 24.

As to `CC[C@H](C)[C@H]1C(=O)NCC(=O)N(C)[C@@H](C(C)C)C(=O)N[C@@H](CC(=O)OC)C(=O)O[C@H](C)C(=O)N2CCCC[C@H]2C(=O)N(C)[C@@H](C(C)C)C(=O)N[C@@H](C(C)C)C(=O)N(C)[C@@H](CC(=O)OC)C(=O)N(C)[C@@H]([C@@H](C)CC)C(=O)N1C`, the Activity in the test with CHO [1] was found to be 5.6; in the test with CHO [2], 1.1; in the test on CHO [3], 1.9; in the test with CHO [4] it was 3.5.

Take `CC[C@H](C)[C@H]1C(=O)N(C)[C@@H]([C@@H](C)CC)C(=O)NCC(=O)N(C)[C@@H](C(C)C)C(=O)N[C@@H](Cc2ccc(OC)cc2)C(=O)O[C@H](C)C(=O)N2CCCC[C@H]2C(=O)N(C)[C@@H](C(C)C)C(=O)N[C@@H](C(C)C)C(=O)N(C)[C@H](CN(C)C(C=O)C/C=C/C(=O)OC(C)(C)C)C(=O)N1C` (stereo partly specified): the Activity in the test on CHO [1] turned out to be 8.7; with CHO [2] it was 19; in the test with CHO [3], 7.6; with CHO [4], 97.

Turning to `CC[C@@H](C)[C@H]1C(=O)NCC(=O)N(C)[C@@H](C(C)C)C(=O)N[C@@H](Cc2ccc(OC)cc2)C(=O)N[C@@H](C)C(=O)N2CCCC[C@H]2C(=O)N(C)[C@@H](C(C)C)C(=O)N[C@@H](C(C)C)C(=O)N(C)[C@H](CC(=O)OC(C)(C)C)C(=O)N(C)[C@@H]([C@@H](C)CC)C(=O)N1C`, the Activity in the test on CHO [1] worked out at 6.2; with CHO [2] it was 5.2; with CHO [3], 4.6; in the test with CHO [4], 144.

On to `CC[C@@H](C)[C@H]1C(=O)NCC(=O)N(C)[C@@H](C(C)C)C(=O)N[C@@H](Cc2ccc(OC)cc2)C(=O)O[C@@H](C)C(=O)N2CCCC[C@H]2C(=O)N(C)[C@@H](C(C)C)C(=O)N[C@@H](C(C)C)C(=O)N(C)[C@H](CC(=O)N[C@H](C(=O)OC(C)(C)C)C(C)C)C(=O)N(C)[C@@H]([C@@H](C)CC)C(=O)N1C`, for which the Activity in the test on CHO [1] is reported as 11; in the test with CHO [2], 115; with CHO [3] it was 8.6; in the test on CHO [4], 344.

As to `CC[C@@H](C)[C@H]1C(=O)NCC(=O)N(C)[C@@H](C(C)C)C(=O)N[C@@H](Cc2ccc(OC)cc2)C(=O)O[C@H](C)C(=O)N2CCCC[C@H]2C(=O)N(C)[C@@H](C(C)C)C(=O)N[C@@H](C(C)C)C(=O)N(C)[C@H](CC(=O)NC(c2ccccc2)c2ccccc2)C(=O)N(C)[C@@H]([C@@H](C)CC)C(=O)N1C`, the Activity in the test on CHO [1] is listed as 13; in the test with CHO [2], 6.4; with CHO [3], 7.5; in the test on CHO [4], 147.

Take `CC[C@H](C)[C@H]1C(=O)NCC(=O)N(C)[C@@H](C(C)C)C(=O)N[C@@H](Cc2ccc(O)cc2)C(=O)O[C@H](C)C(=O)N2CCCC[C@H]2C(=O)N(C)[C@@H](C(C)C)C(=O)N[C@@H](C(C)C)C(=O)N(C)[C@@H](CC(=O)OCc2ccccc2)C(=O)N(C)[C@@H]([C@@H](C)CC)C(=O)N1C`: the Activity with CHO [1] is listed as 14; with CHO [2], 1.2; in the test on CHO [3], 4.4; with CHO [4], 26.

As for `CC[C@@H](C)[C@H]1C(=O)NCC(=O)N(C)[C@@H](C(C)C)C(=O)N[C@@H](Cc2ccc(OCc3ccccc3)cc2)C(=O)O[C@H](C)C(=O)N2CCCC[C@H]2C(=O)N(C)[C@@H](C(C)C)C(=O)N[C@@H](C(C)C)C(=O)N(C)[C@H](CC(=O)O)C(=O)N(C)[C@@H]([C@@H](C)CC)C(=O)N1C`, the Activity in the test on CHO [1] came out at 3.9; with CHO [2] it was 1.3; in the test with CHO [3], 1.1; in the test with CHO [4], 2.1.

Take `C=CCOc1ccc(C[C@@H]2NC(=O)[C@H](C(C)C)N(C)C(=O)CNC(=O)[C@H]([C@@H](C)CC)N(C)C(=O)[C@H]([C@@H](C)CC)N(C)C(=O)[C@H](CC(=O)OC(C)(C)C)N(C)C(=O)[C@H](C(C)C)NC(=O)[C@H](C(C)C)N(C)C(=O)[C@@H]3CCCCN3C(=O)[C@@H](C)OC2=O)cc1`: the Activity in the test with CHO [1] is 11; in the test with CHO [2], 1.5; with CHO [3] it was 5.8; in the test with CHO [4], 9.6.

For `CC[C@H](C)[C@H]1C(=O)N(C)[C@@H]([C@@H](C)CC)C(=O)NCC(=O)N(C)[C@@H](C(C)C)C(=O)N[C@@H](Cc2ccc(OC)cc2)C(=O)O[C@H](C)C(=O)N2CCCC[C@H]2C(=O)N(C)[C@@H](C(C)C)C(=O)N[C@@H](C(C)C)C(=O)N(C)[C@H](CN(C)C(C=O)CCCC(=O)OC(C)(C)C)C(=O)N1C` (stereo partly specified), the Activity in the test on CHO [1] was determined as 8.2; with CHO [2], 4.2; in the test with CHO [3], 6.8; in the test on CHO [4], 114.

Consider `CC[C@@H](C)[C@H]1C(=O)NCC(=O)N(C)[C@@H](C(C)C)C(=O)N[C@@H](Cc2ccc(OC)cc2)C(=O)O[C@H](C)C(=O)N2CCCC[C@H]2C(=O)N(C)[C@@H](C(C)C)C(=O)N[C@@H](C(C)C)C(=O)N(C)[C@H](CC(=O)N[C@H](CO)C(C)C)C(=O)N(C)[C@@H]([C@@H](C)CC)C(=O)N1C`, for which the Activity in the test on CHO [1] is reported as 9.8; in the test with CHO [2] it was 3.2; in the test with CHO [3], 7.6; in the test on CHO [4] it was 144.

As to `CC[C@@H](C)[C@H]1C(=O)NCC(=O)N(C)[C@@H](C(C)C)C(=O)N[C@@H](Cc2ccc(OC)cc2)C(=O)O[C@H](C)C(=O)N2CCCC[C@H]2C(=O)N(C)[C@@H](C(C)C)C(=O)N[C@@H](C(C)C)C(=O)N(C)[C@H](CC=O)C(=O)N(C)[C@@H]([C@@H](C)CC)C(=O)N1C`, the Activity with CHO [1] is on record as 8.2; with CHO [2] it was 1.1; with CHO [3], 4.6; with CHO [4], 28.
